Laboratory results published in ChEMBL document CHEMBL1140259, “Isomeric thiazole derivatives as ligands for the neuropeptide Y5 receptor” (Bioorg Med Chem Lett, 2005).

Molecular target: T1, Neuropeptide Y receptor type 5 (Mus musculus) (UniProt O70342)
T1 sequence (whole entry): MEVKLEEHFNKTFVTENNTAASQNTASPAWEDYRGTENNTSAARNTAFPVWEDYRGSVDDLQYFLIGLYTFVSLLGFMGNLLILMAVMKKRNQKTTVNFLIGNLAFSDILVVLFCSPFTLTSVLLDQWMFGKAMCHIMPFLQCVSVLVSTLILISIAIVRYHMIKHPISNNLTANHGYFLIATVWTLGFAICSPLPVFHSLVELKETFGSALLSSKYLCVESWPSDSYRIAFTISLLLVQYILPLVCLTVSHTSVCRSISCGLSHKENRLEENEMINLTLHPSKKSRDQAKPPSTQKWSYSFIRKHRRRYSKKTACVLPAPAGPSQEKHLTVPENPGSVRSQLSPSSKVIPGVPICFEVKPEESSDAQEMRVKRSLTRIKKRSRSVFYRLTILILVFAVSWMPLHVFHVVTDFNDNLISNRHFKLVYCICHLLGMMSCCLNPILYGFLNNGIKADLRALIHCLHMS
Assay: Percent inhibition against mouse NPY5 receptor at 1 um

Compared with COc1cccc(S(=O)(=O)NCCCNc2nc(C(=O)c3ccccc3C)cs2)c1, Cc1ccccc1C(=O)c1csc(NCCCNS(=O)(=O)c2ccc(F)cc2)n1 is higher in inhibition: 12% for the first, 16% for the second.

Molecular target: T2, Neuropeptide Y receptor type 5 (Mus musculus, UniProt O70342)
T2 sequence (O70342 whole entry): T1 sequence (whole entry)
Assay: Inhibitory concentration against mouse NPY5 receptor […]

First: COc1cccc(S(=O)(=O)NCCCNc2ncc(C(=O)c3ccccc3C)s2)c1
Second: Cc1ccccc1C(=O)c1cnc(NCCCNS(=O)(=O)c2cccc(F)c2)s1
The IC50 of the first is 2-fold higher: 11 nM for the first, 5.5 nM for the second.

Going from Cc1ccccc1C(=O)c1csc(NCCCNS(=O)(=O)c2cccs2)n1 to Cc1ccccc1C(=O)c1cnc(NCCCNS(=O)(=O)c2cccs2)s1, the IC50 falls from 11 nM to 1 nM (11-fold).

Going from Cc1ccccc1C(=O)c1cnc(NCCCNS(=O)(=O)c2cc(C(F)(F)F)ccc2Cl)s1 to Cc1ccccc1C(=O)c1csc(NCCCNS(=O)(=O)c2cc(C(F)(F)F)ccc2Cl)n1, the IC50 rises from 0.85 nM to 9 nM (11-fold).

Compared with Cc1ccccc1C(=O)c1cnc(NCCCNS(=O)(=O)c2ccc(F)cc2)s1, COc1ccc(C)cc1S(=O)(=O)NCCCNc1ncc(C(=O)c2ccccc2C)s1 is 14000-fold lower in IC50: 9900 nM for the first, 0.71 nM for the second. The second is the more potent here.

Going from COc1ccc(OC)c(S(=O)(=O)NCCCNc2ncc(C(=O)c3ccccc3C)s2)c1 to COc1ccc(OC)c(S(=O)(=O)NCCCNc2nc(C(=O)c3ccccc3C)cs2)c1, the IC50 rises from 1.6 nM to 17 nM (11-fold).

In the case of Cc1ccccc1C(=O)c1csc(NCCCNS(=O)(=O)c2cccc(F)c2)n1, the IC50 is reported as 64 nM.
